Reference: patent US10913727B2, “Modulators of the integrated stress pathway” (Calico Life Sciences LLC, priority 2016, dated 2021)

These compounds were tested on HEK293T cells carrying the ATF4 luciferase reporter (assay: ATF4-Luc assay, in vitro model of Vanishing Cell White Matter Disease (VWMD)). Settings: Homo sapiens, HEK-293T, 1 μg/mL tunicamycin, 7 hours, One Glo luminescence.
Format: cell-based
Procedure, shortened: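 Compound at 200 nM and tunicamycin at 1 μg/mL were given together for 7 h to HEK293T cells stably transduced with an ATF4 5′-UTR-driven firefly luciferase reporter. Read-out by luminescence, reported as EC50.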

Compound	EC50
O=C(COc1ccc(Cl)c(F)c1)NC12CC(NC(=O)c3ccc4snnc4c3)(C1)C2 [Compound 800, N-{3-[2-(4-chloro-3-fluorophenoxy)acetamido]bicyclo[1.1.1]pentan-1-yl}-1,2,3-benzothiadiazole-5-carboxamide]	> 2000 nM
CCNC(=O)c1ccc(C(=O)NC23CC(NC(=O)COc4ccc(Cl)c(F)c4)(C2)C3)nc1 [Compound 270, N^2-{3-[2-(4-chloro-3-fluorophenoxy)acetamido]bicyclo[1.1.1]pentan-1-yl}-N^5-ethylpyridine-2,5-dicarboxamide]	> 2000 nM
Cc1cc(C(=O)NC23CCC(NC(=O)COc4ccc(Cl)c(F)c4)(CC2)C(O)C3)nn1C (stereo not drawn) [Compound 468, N-{4-[2-(4-chloro-3-fluorophenoxy)acetamido]-3-hydroxybicyclo[2.2.2]octan-1-yl}-1,5-dimethyl-1H-pyrazole-3-carboxamide]	250 to 1000 nM
Cc1cc(C(=O)NC23CC(NC(=O)COc4ccc5c(c4)OC(F)(F)O5)(C2)C3)on1 [Compound 377, N-(3-{2-[(2,2-difluoro-2H-1,3-benzodioxol-5-yl)oxy]acetamido}bicyclo[1.1.1]pentan-1-yl)-3-methyl-1,2-oxazole-5-carboxamide]	250 to 1000 nM
CC(=O)Nc1nc(C(=O)NC23CC(NC(=O)COc4ccc(Cl)c(F)c4)(C2)C3)cs1 [Compound 870, 2-acetamido-N-{3-[2-(4-chloro-3-fluorophenoxy)acetamido]bicyclo[1.1.1]pentan-1-yl}-1,3-thiazole-4-carboxamide]	> 2000 nM
O=C(COc1ccc(Cl)c(F)c1)NC12CCC(NC(=O)c3cnccn3)(CC1)C[C@@H]2O [Compound 670, N-{(3S)-4-[2-(4-chloro-3-fluorophenoxy)acetamido]-3-hydroxybicyclo[2.2.2]octan-1-yl}pyrazine-2-carboxamide]	< 50 nM
O=C(COc1ccc2c(c1)OC(F)(F)O2)NC12CCC(NC(=O)c3cccc(F)c3)(CC1)C[C@@H]2O [Compound 635, N-[(3S)-4-{2-[(2,2-difluoro-2H-1,3-benzodioxol-5-yl)oxy]acetamido}-3-hydroxybicyclo[2.2.2]octan-1-yl]-3-fluorobenzamide]	250 to 1000 nM
O=C(COc1ccc(Cl)c(F)c1)NC12CC(Nc3ccc(C(F)(F)F)nn3)(C1)C2 [Compound 127, 2-(4-chloro-3-fluorophenoxy)-N-(3-{[6-(trifluoromethyl)pyridazin-3-yl]amino}bicyclo[1.1.1]pentan-1-yl)acetamide]	> 2000 nM
Cc1ccc(C(=O)NC23CC(NC(=O)COc4ccc(Cl)c(F)c4)(C2)C3)nn1 [Compound 137, N-{3-[2-(4-chloro-3-fluorophenoxy)acetamido]bicyclo[1.1.1]pentan-1-yl}-6-methylpyridazine-3-carboxamide]	1000 to 2000 nM
O=C(COc1ccc2c(c1)OC(F)(F)O2)NC12CC(NC(=O)c3cnc(-c4ccccc4)o3)(C1)C2 [Compound 742, N-(3-{2-[(2,2-difluoro-2H-1,3-benzodioxol-5-yl)oxy]acetamido}bicyclo[1.1.1]pentan-1-yl)-2-phenyl-1,3-oxazole-5-carboxamide]	< 50 nM
O=C(COc1ccc(Cl)c(F)c1)NC12CC(Nc3nccn4cnnc34)(C1)C2 [Compound 445, 2-(4-chloro-3-fluorophenoxy)-N-{3-[([1,2,4]triazolo[4,3-a]pyrazin-8-yl)amino]bicyclo[1.1.1]pentan-1-yl}acetamide]	> 2000 nM
Cc1nc(C)c(C(=O)NC23CC(NC(=O)COc4ccc(Cl)c(F)c4)(C2)C3)s1 [Compound 238, N-{3-[2-(4-chloro-3-fluorophenoxy)acetamido]bicyclo[1.1.1]pentan-1-yl}-2,4-dimethyl-1,3-thiazole-5-carboxamide]	50 to 250 nM
Cc1nc(C(=O)NC23CCC(NC(=O)COc4ccc(Cl)c(F)c4)(CC2)C(O)C3)co1 (stereo not drawn) [Compound 467, N-{4-[2-(4-chloro-3-fluorophenoxy)acetamido]-3-hydroxybicyclo[2.2.2]octan-1-yl}-2-methyl-1,3-oxazole-4-carboxamide]	50 to 250 nM
CC(=O)N1CC=C(c2ncc(C(=O)NC34CC(NC(=O)COc5ccc(Cl)c(F)c5)(C3)C4)o2)CC1 [Compound 151, 2-(1-acetyl-1,2,3,6-tetrahydropyridin-4-yl)-N-{3-[2-(4-chloro-3-fluorophenoxy)acetamido]bicyclo[1.1.1]pentan-1-yl}-1,3-oxazole-5-carboxamide]	> 2000 nM
O=C(COc1ccc(Cl)c(F)c1)NC12CC(NC(=O)c3ccco3)(C1)C2 [Compound 304, N-{3-[2-(4-chloro-3-fluorophenoxy)acetamido]bicyclo[1.1.1]pentan-1-yl}furan-2-carboxamide]	250 to 1000 nM
Cc1cc(C(=O)NC23CCC(NC(=O)COc4ccc(Cl)c(F)c4)(CC2)CC3F)on1 (stereo not drawn) [Compound 374, N-{4-[2-(4-chloro-3-fluorophenoxy)acetamido]-2-fluorobicyclo[2.2.2]octan-1-yl}-3-methyl-1,2-oxazole-5-carboxamide]	> 2000 nM
O=C(COc1ccc(Cl)c(F)c1)NC12CC(NC(=O)c3cnc(C4CC4)cn3)(C1)C2 [Compound 266, N-{3-[2-(4-chloro-3-fluorophenoxy)acetamido]bicyclo[1.1.1]pentan-1-yl}-5-cyclopropylpyrazine-2-carboxamide]	50 to 250 nM

Compound	EC50
CC(=O)Nc1ccc(C(=O)NC23CC(NC(=O)COc4ccc(Cl)c(F)c4)(C2)C3)cn1 [Compound 805, 6-acetamido-N-{3-[2-(4-chloro-3-fluorophenoxy)acetamido]bicyclo[1.1.1]pentan-1-yl}pyridine-3-carboxamide]	> 2000 nM
Cn1cnc2cc(C(=O)NC34CC(NC(=O)COc5ccc(Cl)c(F)c5)(C3)C4)ccc2c1=O [Compound 342, N-{3-[2-(4-chloro-3-fluorophenoxy)acetamido]bicyclo[1.1.1]pentan-1-yl}-3-methyl-4-oxo-3,4-dihydroquinazoline-7-carboxamide]	250 to 1000 nM
O=C(COc1ccc(Cl)cc1)NC12CC(NC(=O)c3cnc(C(F)F)cn3)(C1)C2 [Compound 202, N-{3-[2-(4-chlorophenoxy)acetamido]bicyclo[1.1.1]pentan-1-yl}-5-(difluoromethyl)pyrazine-2-carboxamide]	50 to 250 nM
O=C(COc1ccc(Cl)c(F)c1)NC12CC(NC(=O)c3ccc(C(F)F)cn3)(C1)C2 [Compound 233, N-{3-[2-(4-chloro-3-fluorophenoxy)acetamido]bicyclo[1.1.1]pentan-1-yl}-5-(difluoromethyl)pyridine-2-carboxamide]	< 50 nM
O=C(COc1ccc2c(c1)OC(F)(F)O2)NC12CC(NC(=O)c3cc(CO)ccn3)(C1)C2 [Compound 401, N-(3-{2-[(2,2-difluoro-2H-1,3-benzodioxol-5-yl)oxy]acetamido}bicyclo[1.1.1]pentan-1-yl)-4-(hydroxymethyl)pyridine-2-carboxamide]	250 to 1000 nM
O=C(COc1ccc(Cl)c(F)c1)NC12CCC(NC(=O)c3ccc(C(F)F)cn3)(CC1)C[C@@H]2O [Compound 752, N-{(3S)-4-[2-(4-chloro-3-fluorophenoxy)acetamido]-3-hydroxybicyclo[2.2.2]octan-1-yl}-5-(difluoromethyl)pyridine-2-carboxamide]	< 50 nM
Cc1ncc(C(=O)NC23CC(NC(=O)COc4ccc(Cl)c(F)c4)(C2)C3)c(C)n1 [Compound 784, N-{3-[2-(4-chloro-3-fluorophenoxy)acetamido]bicyclo[1.1.1]pentan-1-yl}-2,4-dimethylpyrimidine-5-carboxamide]	> 2000 nM
CCc1cnc(C(=O)NC23CC(NC(=O)COc4ccc(Cl)c(Cl)c4)(C2)C3)cn1 [Compound 711, N-{3-[2-(3,4-dichlorophenoxy)acetamido]bicyclo[1.1.1]pentan-1-yl}-5-ethylpyrazine-2-carboxamide]	< 50 nM
Cc1cncc(C(=O)NC23CC(NC(=O)COc4ccc(Cl)c(F)c4)(C2)C3)c1 [Compound 644, N-{3-[2-(4-chloro-3-fluorophenoxy)acetamido]bicyclo[1.1.1]pentan-1-yl}-5-methylpyridine-3-carboxamide]	50 to 250 nM
Cn1ccc(C(=O)NC23CC(NC(=O)COc4ccc(Cl)c(F)c4)(C2)C3)n1 [Compound 389, N-{3-[2-(4-chloro-3-fluorophenoxy)acetamido]bicyclo[1.1.1]pentan-1-yl}-1-methyl-1H-pyrazole-3-carboxamide]	250 to 1000 nM
Cc1cnc(C(=O)NC23CCC(NC(=O)COc4ccc(Cl)c(F)c4)(CC2)C[C@@H]3O)cn1 [Compound 733, N-{(2S)-4-[2-(4-chloro-3-fluorophenoxy)acetamido]-2-hydroxybicyclo[2.2.2]octan-1-yl}-5-methylpyrazine-2-carboxamide]	> 2000 nM
O=C(COc1ccc(Cl)c(F)c1)NC12CC(NC(=O)c3ccc4[nH]c(=O)[nH]c4n3)(C1)C2 [Compound 205, N-{3-[2-(4-chloro-3-fluorophenoxy)acetamido]bicyclo[1.1.1]pentan-1-yl}-2-oxo-2,3-dihydro-1H-imidazo[4,5-b]pyridine-5-carboxamide]	> 2000 nM
Cc1ncc(C(=O)NC23CC(NC(=O)COc4ccc(Cl)c(Cl)c4)(C2)C3)o1 [Compound 675, N-{3-[2-(3,4-dichlorophenoxy)acetamido]bicyclo[1.1.1]pentan-1-yl}-2-methyl-1,3-oxazole-5-carboxamide]	50 to 250 nM
Cn1nc(C(C)(C)C)cc1C(=O)NC12CC(NC(=O)COc3ccc(Cl)c(F)c3)(C1)C2 [Compound 338, 3-tert-butyl-N-{3-[2-(4-chloro-3-fluorophenoxy)acetamido]bicyclo[1.1.1]pentan-1-yl}-1-methyl-1H-pyrazole-5-carboxamide]	50 to 250 nM
O=C(COc1ccc(Cl)c(F)c1)NC12CC(NC(=O)c3cccnc3-n3cccn3)(C1)C2 [Compound 807, N-{3-[2-(4-chloro-3-fluorophenoxy)acetamido]bicyclo[1.1.1]pentan-1-yl}-2-(1H-pyrazol-1-yl)pyridine-3-carboxamide]	> 2000 nM
O=C(COc1ccc(Cl)c(F)c1)NC12CCC(NC(=O)c3cnc(C4CC4)cn3)(CC1)C[C@@H]2O [Compound 653, N-{(3S)-4-[2-(4-chloro-3-fluorophenoxy)acetamido]-3-hydroxybicyclo[2.2.2]octan-1-yl}-5-cyclopropylpyrazine-2-carboxamide]	250 to 1000 nM
